Patent US20260285855A1, “HETEROARYL DERIVATIVES AS DDRS INHIBITORS” (CHIESI FARMACEUTICI S.P.A., priority 2023, published 2026)

Key:
[1] = target: T1, DDR1 (Homo sapiens, UniProt Q08345); test: LanthaScreen Europium Kinase Binding assay, DDR1; conditions: 5 nM DDR1, 20 nM Kinase Tracer 178, 1 h at rt; Ki from IC50 by Cheng-Prusoff; read-out: Ki DDR1
T1 construct: purchased Carna Biosciences
Procedure: (§1) DDR1 and DDR2 binding assays were performed using Life Technologies LanthaScreen™ Europium Kinase Binding assay. […] IC50 values were determined in GraphPad Prism 7.0 software, using 4 parameter model: log (inhibitor) vs. response. IC50 values were converted in Ki using the Cheng-Prusoff equation (Ki-IC50/(1+ [Tracer]/Kd).

[2] = target: T2, DDR2 (Homo sapiens, UniProt Q16832); test: LanthaScreen Europium Kinase Binding assay, DDR2; conditions: 5 nM DDR2, 10 nM Kinase Tracer 178, 1 h at rt; Ki from IC50 by Cheng-Prusoff; read-out: Ki DDR2
T2 construct: purchased Life Technologies
T2 sequence (Q16832 22-855): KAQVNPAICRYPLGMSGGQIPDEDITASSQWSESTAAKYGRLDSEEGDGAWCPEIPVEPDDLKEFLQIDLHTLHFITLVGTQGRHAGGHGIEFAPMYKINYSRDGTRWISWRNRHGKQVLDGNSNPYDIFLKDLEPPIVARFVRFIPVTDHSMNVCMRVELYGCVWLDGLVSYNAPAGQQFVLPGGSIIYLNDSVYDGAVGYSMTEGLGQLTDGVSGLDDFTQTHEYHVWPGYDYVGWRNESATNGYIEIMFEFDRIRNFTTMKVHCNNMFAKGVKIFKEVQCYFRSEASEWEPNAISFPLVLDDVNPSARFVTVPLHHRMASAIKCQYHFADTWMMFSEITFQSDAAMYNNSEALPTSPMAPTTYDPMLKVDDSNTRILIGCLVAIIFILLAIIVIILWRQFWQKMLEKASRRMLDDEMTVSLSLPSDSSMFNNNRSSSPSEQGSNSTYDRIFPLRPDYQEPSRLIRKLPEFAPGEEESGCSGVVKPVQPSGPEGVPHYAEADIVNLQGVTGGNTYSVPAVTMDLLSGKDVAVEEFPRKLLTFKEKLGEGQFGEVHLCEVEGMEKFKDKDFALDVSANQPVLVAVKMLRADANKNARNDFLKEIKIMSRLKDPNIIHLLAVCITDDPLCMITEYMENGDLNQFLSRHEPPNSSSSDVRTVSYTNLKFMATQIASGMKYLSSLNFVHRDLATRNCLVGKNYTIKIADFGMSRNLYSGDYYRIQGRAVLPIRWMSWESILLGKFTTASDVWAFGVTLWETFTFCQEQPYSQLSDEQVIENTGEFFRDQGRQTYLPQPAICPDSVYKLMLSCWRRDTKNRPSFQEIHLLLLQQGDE
Procedure: as §1

T1 sequence (Q08345 19-913): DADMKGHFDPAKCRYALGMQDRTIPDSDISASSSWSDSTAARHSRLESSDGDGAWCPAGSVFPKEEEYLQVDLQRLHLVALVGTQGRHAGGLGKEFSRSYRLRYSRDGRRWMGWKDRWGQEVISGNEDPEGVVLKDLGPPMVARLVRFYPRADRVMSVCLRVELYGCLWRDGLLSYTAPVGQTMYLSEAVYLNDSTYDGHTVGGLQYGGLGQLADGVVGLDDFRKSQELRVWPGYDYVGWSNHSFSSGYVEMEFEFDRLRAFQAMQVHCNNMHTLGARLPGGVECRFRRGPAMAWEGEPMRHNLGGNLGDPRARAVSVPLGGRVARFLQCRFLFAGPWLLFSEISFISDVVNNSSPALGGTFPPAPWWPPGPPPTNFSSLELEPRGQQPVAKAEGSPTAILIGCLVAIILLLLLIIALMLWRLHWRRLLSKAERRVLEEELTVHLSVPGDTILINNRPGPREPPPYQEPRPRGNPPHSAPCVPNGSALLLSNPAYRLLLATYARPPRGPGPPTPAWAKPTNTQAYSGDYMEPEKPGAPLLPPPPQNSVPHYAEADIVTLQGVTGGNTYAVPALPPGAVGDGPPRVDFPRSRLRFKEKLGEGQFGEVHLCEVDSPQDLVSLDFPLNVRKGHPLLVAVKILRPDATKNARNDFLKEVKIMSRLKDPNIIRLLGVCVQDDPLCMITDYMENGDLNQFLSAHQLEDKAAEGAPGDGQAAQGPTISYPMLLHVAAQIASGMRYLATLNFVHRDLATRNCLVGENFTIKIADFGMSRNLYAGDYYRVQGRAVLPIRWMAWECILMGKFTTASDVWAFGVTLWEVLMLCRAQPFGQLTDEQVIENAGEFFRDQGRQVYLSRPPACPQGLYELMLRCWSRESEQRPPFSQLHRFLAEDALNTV

Row | Ki [1] | Ki [2] | Structure (SMILES)
1 | < 5 nM | 5 to 25 nM | O=C(Nc1cccc(C(F)(F)F)c1)NC1CC2(C1)CN(C(=O)c1cnc3ccccn13)C2 [Example 1, 1-(2-(imidazo[1,2-a]pyridine-3-carbonyl)-2-azaspiro[3.3]heptan-6-yl)-3-(3-(trifluoromethyl)phenyl)urea]
2 | < 5 nM | 5 to 25 nM | O=C(Nc1cccc(C(F)(F)F)c1)NC1CC2(C1)CN(C(=O)c1cnn3ccncc13)C2 [Example 2, 1-(2-(pyrazolo[1,5-a]pyrazine-3-carbonyl)-2-azaspiro[3.3]heptan-6-yl)-3-(3-(trifluoromethyl)phenyl)urea]
3 | 25 to 100 nM | 25 to 100 nM | O=C(Nc1cccc(C(F)(F)F)c1)NC1CC2(C1)CN(C(=O)c1cnc3[nH]ccc3c1)C2 [Example 3, 1-(2-(1H-pyrrolo[2,3-b]pyridine-5-carbonyl)-2-azaspiro[3.3]heptan-6-yl)-3-(3-(trifluoromethyl)phenyl)urea]
4 | < 5 nM | < 5 nM | O=C(Nc1cccc(C(F)(F)F)c1)NC1CC2(C1)CN(C(=O)c1cnn3ccsc13)C2 [Example 4, 1-(2-(pyrazolo[5,1-b]thiazole-7-carbonyl)-2-azaspiro[3.3]heptan-6-yl)-3-(3-(trifluoromethyl)phenyl)urea]
5 | < 5 nM | 5 to 25 nM | CN1CCN(c2ccc3ncc(C(=O)N4CC5(CC(NC(=O)Nc6cccc(C(F)(F)F)c6)C5)C4)n3c2)CC1 [Example 5, 1-(2-(6-(4-methylpiperazin-1-yl)imidazo[1,2-a]pyridine-3-carbonyl)-2-azaspiro[3.3]heptan-6-yl)-3-(3-(trifluoromethyl)phenyl)urea]
6 | < 5 nM | 5 to 25 nM | O=C(Nc1cccc(C(F)(F)F)c1)NC1CC2(C1)CN(C(=O)c1cnc3n1CCOC3)C2 [Example 6, 1-(2-(5,6-dihydro-8H-imidazo[2,1-c][1,4]oxazine-3-carbonyl)-2-azaspiro[3.3]heptan-6-yl)-3-(3-(trifluoromethyl)phenyl)urea]
7 | 5 to 25 nM | 5 to 25 nM | O=C(Nc1cccc(C(F)(F)F)c1)NC1CC2(C1)CN(C(=O)c1cnc3cccnn13)C2 [Example 7, 1-(2-(imidazo[1,2-b]pyridazine-3-carbonyl)-2-azaspiro[3.3]heptan-6-yl)-3-(3-(trifluoromethyl)phenyl)urea]
8 | < 5 nM | 5 to 25 nM | Cn1cncc1C(=O)N1CC2(CC(NC(=O)Nc3cccc(C(F)(F)F)c3)C2)C1 [Example 8, 1-(2-(1-methyl-1H-imidazole-5-carbonyl)-2-azaspiro[3.3]heptan-6-yl)-3-(3-(trifluoromethyl)phenyl)urea]
9 | < 5 nM | < 5 nM | Cn1ccn2ncc(C(=O)N3CC4(CC(NC(=O)Nc5cccc(C(F)(F)F)c5)C4)C3)c12 [Example 9, 1-(2-(1-methyl-1H-imidazo[1,2-b]pyrazole-7-carbonyl)-2-azaspiro[3.3]heptan-6-yl)-3-(3-(trifluoromethyl)phenyl)urea]
10 | 5 to 25 nM | 5 to 25 nM | O=C(Nc1cccc(C(F)(F)F)c1)NC1CC2(C1)CN(Cc1cnc3cnccn13)C2 [Example 11, 1-(2-(imidazo[1,2-a]pyrazin-3-ylmethyl)-2-azaspiro[3.3]heptan-6-yl)-3-(3-(trifluoromethyl)phenyl)urea]
11 | 5 to 25 nM | 5 to 25 nM | O=C(Nc1cccc(C(F)(F)F)c1)NC1CC2(C1)CN(Cc1cnc3[nH]ncc3c1)C2 [Example 12, 1-(2-((1H-pyrazolo[3,4-b]pyridine-5-yl)methyl)-2-azaspiro[3.3]heptan-6-yl)-3-(3-(trifluoromethyl)phenyl)urea]
12 | < 5 nM | < 5 nM | O=C(Nc1cccc(C(F)(F)F)c1)NC1CC2(C1)CN(c1ccnc3[nH]ncc13)C2 [Example 15, 1-(2-(1H-pyrazolo[3,4-b]pyridin-4-yl)-2-azaspiro[3.3]heptan-6-yl)-3-(3-(trifluoromethyl)phenyl)urea]
13 | < 5 nM | 5 to 25 nM | O=C(Nc1cc(F)cc(C(F)(F)F)c1)NC1CC2(C1)CN(C(=O)c1cnn3ccncc13)C2 [Example 16, 1-(3-fluoro-5-(trifluoromethyl)phenyl)-3-(2-(pyrazolo[1,5-a]pyrazine-3-carbonyl)-2-azaspiro[3.3]heptan-6-yl)urea]
14 | < 5 nM | 5 to 25 nM | O=C(Nc1cc(C(F)(F)F)ccc1F)NC1CC2(C1)CN(C(=O)c1cnn3ccncc13)C2 [Example 17, 1-(2-fluoro-5-(trifluoromethyl)phenyl)-3-(2-(pyrazolo[1,5-a]pyrazine-3-carbonyl)-2-azaspiro[3.3]heptan-6-yl)urea]
15 | 5 to 25 nM | 25 to 100 nM | CC(C)(C)c1cc(NC(=O)NC2CC3(C2)CN(C(=O)c2cnn4ccncc24)C3)no1 [Example 18, 1-(5-(tert-butyl)isoxazol-3-yl)-3-(2-(pyrazolo[1,5-a]pyrazine-3-carbonyl)-2-azaspiro[3.3]heptan-6-yl)urea]
16 | < 5 nM | < 5 nM | N#Cc1cc(NC(=O)NC2CC3(C2)CN(C(=O)c2cnn4ccncc24)C3)cc(C(F)(F)F)c1 [Example 19, 1-(3-cyano-5-(trifluoromethyl)phenyl)-3-(2-(pyrazolo[1,5-a]pyrazine-3-carbonyl)-2-azaspiro[3.3]heptan-6-yl)urea]
17 | < 5 nM | 5 to 25 nM | CC(C)(C)c1cc(NC(=O)NC2CC3(C2)CN(C(=O)c2cnn4ccsc24)C3)no1 [Example 20, 1-(5-(tert-butyl)isoxazol-3-yl)-3-(2-(pyrazolo[5,1-b]thiazole-7-carbonyl)-2-azaspiro[3.3]heptan-6-yl)urea]
18 | < 5 nM | < 5 nM | O=C(Nc1cccc(OC(F)(F)F)c1)NC1CC2(C1)CN(C(=O)c1cnn3ccsc13)C2 [Example 21, 1-(2-(pyrazolo[5,1-b]thiazole-7-carbonyl)-2-azaspiro[3.3]heptan-6-yl)-3-(3-(trifluoromethoxy)phenyl)urea]
19 | < 5 nM | 5 to 25 nM | O=C(Nc1cncc(C(F)(F)F)c1)NC1CC2(C1)CN(C(=O)c1cnn3ccsc13)C2 [Example 22, 1-(2-(pyrazolo[5,1-b]thiazole-7-carbonyl)-2-azaspiro[3.3]heptan-6-yl)-3-(5-(trifluoromethyl)pyridin-3-yl)urea]
20 | < 5 nM | < 5 nM | COc1ccc(OC(F)(F)F)cc1NC(=O)NC1CC2(C1)CN(C(=O)c1cnn3ccsc13)C2 [Example 23, 1-(2-methoxy-5-(trifluoromethoxy)phenyl)-3-(2-(pyrazolo[5,1-b]thiazole-7-carbonyl)-2-azaspiro[3.3]heptan-6-yl)urea]
21 | < 5 nM | 5 to 25 nM | CN(C)Cc1ccc(NC(=O)NC2CC3(C2)CN(C(=O)c2cnn4ccsc24)C3)cc1C(F)(F)F [Example 24, 1-(4-((dimethylamino)methyl)-3-(trifluoromethyl)phenyl)-3-(2-(pyrazolo[5,1-b]thiazole-7-carbonyl)-2-azaspiro[3.3]heptan-6-yl)urea]
22 | 5 to 25 nM | 25 to 100 nM | CN(C(=O)Nc1cccc(C(F)(F)F)c1)C1CC2(C1)CN(C(=O)c1cnn3ccncc13)C2 [Example 25, 1-methyl-1-(2-(pyrazolo[1,5-a]pyrazine-3-carbonyl)-2-azaspiro[3.3]heptan-6-yl)-3-(3-(trifluoromethyl)phenyl)urea]
23 | < 5 nM | < 5 nM | O=C(CC1CC2(C1)CN(C(=O)c1cnn3ccsc13)C2)Nc1cccc(C(F)(F)F)c1 [Example 27, 2-(2-(pyrazolo[5,1-b]thiazole-7-carbonyl)-2-azaspiro[3.3]heptan-6-yl)-N-(3-(trifluoromethyl)phenyl)acetamide]
24 | < 5 nM | 5 to 25 nM | O=C(CC1CC2(C1)CN(C(=O)c1cnc3ccccn13)C2)Nc1cccc(C(F)(F)F)c1 [Example 28, 2-(2-(imidazo[1,2-a]pyridine-3-carbonyl)-2-azaspiro[3.3]heptan-6-yl)-N-(3-(trifluoromethyl)phenyl)acetamide]
25 | < 5 nM | < 5 nM | O=C(Nc1cccc(CC(F)(F)F)c1)NC1CC2(C1)CN(C(=O)c1cnn3ccsc13)C2 [Example 31, 1-(2-(pyrazolo[5,1-b]thiazole-7-carbonyl)-2-azaspiro[3.3]heptan-6-yl)-3-(3-(2,2,2-trifluoroethyl)phenyl)urea]
26 | < 5 nM | 5 to 25 nM | Nc1cccn2ncc(C(=O)N3CC4(CC(NC(=O)Nc5cccc(C(F)(F)F)c5)C4)C3)c12 [Example 32, 1-(2-(4-aminopyrazolo[1,5-a]pyridine-3-carbonyl)-2-azaspiro [3.3]heptan-6-yl)-3-(3-(trifluoromethyl)phenyl)urea]
